Values quoted from earlier work in patent publication US20040048853A1, “Compounds, compositions, and methods” (priority 2002, published 2004).

tested on: A549 cells

Structure (SMILES)	GI50
O=c1[nH]cc(F)c(=O)[nH]1 [5-fluorouracil]	1000 nM
COc1cccc2c1C(=O)c1c(O)c3c(c(O)c1C2=O)C[C@@](O)(C(=O)CO)C[C@@H]3O[C@H]1C[C@H](N)[C@H](O)[C@H](C)O1 [doxorubicin]	63 nM
NC(=O)NO [hydroxyurea]	500000 nM
CC(=O)O[C@H]1C(=O)[C@@]2(C)[C@H]([C@H](OC(=O)c3ccccc3)[C@]3(O)C[C@H](OC(=O)[C@H](O)[C@@H](NC(=O)c4ccccc4)c4ccccc4)C(C)=C1C3(C)C)[C@]1(OC(C)=O)CO[C@@H]1C[C@@H]2O [paclitaxel]	4 nM
